Laboratory results as given in publication PMC12136240 (Cell chemical biology, 2024).
Values belong to the compound of their own block, whether it stands above or below them.

Assays:
[1] = biological target: GSPT1-GFP in HEK293T cells (Homo sapiens, UniProt P15170); assay: Off-target degradation of GSPT1 by flow cytometry; type: cell-based; conditions: 24 h
[2] = tested on: zinc-finger (ZF) degrons fused to GFP in U2OS cells; assay: Off-target degradation of ZF degrons by flow cytometry; type: cell-based; conditions: 32 nM to 20 μM, 24 h
[3] = biological target: BRD4(BD2)-GFP in HEK293T cells (Homo sapiens, UniProt O60885+Q96SW2); assay: TR-FRET quantification of BRD4; conditions: for DC50: read-out: DC50(BD2), HEK293T BRD4(BD2)-GFP reporter cells, 4 h
[4] = biological target: BRD4(BD1)-GFP in HEK293T cells (Homo sapiens, UniProt O60885+Q96SW2); assay: TR-FRET quantification of BRD4; conditions: for DC50: read-out: DC50(BD1), HEK293T BRD4(BD1)-GFP reporter cells
[5] = biological target: endogenous BRD4 in MDA-MB-231 cells (Homo sapiens, UniProt O60885); type: cell-based; conditions: 5 h (Fig. 3b)
BRD4 in HEK293T cells = BRD4 in HEK293T cells (Homo sapiens, UniProt O60885); assay: BRD4 degradation assay, western blot; type: cell-based; conditions: 4 h, 100 nM–10 μM dose-response
His6-CRBN/DDB1 = His6-CRBN/DDB1 (Homo sapiens, UniProt Q96SW2); assay: TR-FRET ligand displacement assay; type: binding; conditions: for fold difference in KD between POM and POM-cN: monofunctional compounds, POM binds more tightly
[6] = biological target: His6-CRBN/DDB1–GST-BRD4(BD1) ternary complex (Homo sapiens, UniProt O60885+Q96SW2); assay: TR-FRET off-rate measurement of the ternary complex, BD1; type: binding; conditions: BRD4 dissociation triggered by excess JQ1
BRD4 BD2 bromodomain = conditions: read-out: KD for BD2; cited from earlier work
BRD4 BD1 bromodomain = conditions: read-out: KD for BD1; cited from earlier work
[7] = tested on: His6-CRBN/DDB1 in the presence of GST-BRD4(BD2); assay: TR-FRET ternary complex / cooperativity assay with 1 μM BD2; type: binding; conditions: Alpha = KD,CRBN[binary]/KD,CRBN[ternary]
[8] = tested on: His6-CRBN/DDB1 in the presence of GST-BRD4(BD1); assay: TR-FRET ternary complex / cooperativity assay with 1 μM BD1; type: binding; conditions: Alpha = KD,CRBN[binary]/KD,CRBN[ternary]

Dmax, off-target degradation of GSPT1 [1]: ≤ 1%
Compound: Cc1sc2c(c1C)C(c1ccc(Cl)cc1)=N[C@@H](CC(=O)Nc1ccc(OCCOCCOCCOCCNc3cccc4c3C(=O)N(C3CCC(=O)NC3=O)C4=O)cc1)c1nnc(C)n1-2 (stereo partly drawn) [ARV-825]
degradation of C2H2 zinc finger targets including IKZF3 and ZFP91, in words [2]: fast and rapid degradation

DC50 [3]: 78 nM
DC50 ([4]; 4 h): 41 nM
endogenous BRD4 degradation potency, in words [5]: one of the most potent BRD4 degraders
Compound: Cc1sc2c(c1C)C(c1ccc(Cl)cc1)=N[C@@H](CC(=O)NCCCCCCCCC(=O)N[C@@H](C)C(=O)N[C@H]1CCC(=O)NC1=O)c1nnc(C)n1-2 [JQ1-AcQ]

Kd (His6-CRBN/DDB1; read-out: KD against His6-CRBN/DDB1 (binary), competition binding with Thal-FITC): < 100 nM
Compound: Cc1sc2c(c1C)C(c1ccc(Cl)cc1)=N[C@@H](CC(=O)NCCCCCCCCC(=O)N[C@@H](Cc1ccccc1)C(=O)N[C@H]1CC(=O)NC1=O)c1nnc(C)n1-2 [JQ1-FcN]
BRD4 degradation, western blot, in words (BRD4 in HEK293T cells): efficient degradation of BRD4 at a concentration of 100 nM

time to reach maximum level of degradation (Dmax), BRD4(BD2) ([3]; HEK293T BRD4(BD2)-GFP cells): 3 h
DC50 [3]: 513 nM
time to reach maximum level of degradation (Dmax), BRD4(BD1) ([4]; HEK293T BRD4(BD1)-GFP cells): 1.5 h
fold difference in DC50 between BD1 and BD2 ([4]; HEK293T reporter cells, 4 h, more potent on BD1): 5–10 fold
DC50 ([4]; 4 h): 103 nM
stability of the ternary complex with BRD4(BD1), in words [6]: most stable and long-lived complexes
Compound: Cc1sc2c(c1C)C(c1ccc(Cl)cc1)=N[C@@H](CC(=O)NCCCCCCCCC(=O)N[C@@H](Cc1ccc(O)cc1)C(=O)N[C@H]1CCC(=O)NC1=O)c1nnc(C)n1-2 [JQ1-YcQ]

Compound: Cc1sc2c(c1C)C(c1ccc(Cl)cc1)=N[C@@H](CC(=O)OC(C)(C)C)c1nnc(C)n1-2 [JQ1]
Kd (BRD4 BD2 bromodomain): 90 nM
Kd (BRD4 BD1 bromodomain): 50 nM

Compound: Nc1cccc2c1C(=O)N(C1CCC(=O)NC1=O)C2=O (stereo not drawn) [POM, pomalidomide]
fold difference in KD between POM and POM-cN (His6-CRBN/DDB1): ~ 500 fold

fold difference in KD between POM and POM-cN (His6-CRBN/DDB1): ~ 500 fold
Compound: Nc1cccc2c1C(=O)N(C1CC(=O)NC1=O)C2=O (stereo not drawn) [POM-cN]

Compound: Cc1sc2c(c1C)C(c1ccc(Cl)cc1)=N[C@@H](CC(=O)NCCCCCCCCNC(=O)COc1cccc3c1C(=O)N(C1CCC(=O)NC1=O)C3=O)c1nnc(C)n1-2 (stereo partly drawn) [dBET6]
cooperativity with BRD4(BD2), in words [7]: negative cooperativity
cooperativity with BRD4(BD1), in words [8]: negative cooperativity
Dmax, off-target degradation of GSPT1 [1]: ≤ 9%
Dmax, off-target degradation of ZF degrons [2]: ≈ 6%
